# Tested on: TNFα release from human peripheral blood mononuclear cells
# Experiment: Inhibition of LPS-stimulated TNFα release from human peripheral blood mononuclear cells (TNFα screen, ELISA)
# Type: cell-based
# Conditions: LPS-stimulated human PBMC, 18 hours incubation, TNFα in supernatant by ELISA
# Protocol: Venous blood is collected from healthy volunteers and the mononuclear cells purified by centrifugation through Histopaque (Ficoll) cushions. TNFα production from these cells is stimulated by addition of lipopolysaccharide. After 18 hours incubation in the presence of LPS, the cell supernatant is removed and the concentration of TNFα in the supernatant determined by ELISA.
smiles,measurement,value
"O=C(N[C@H]1CC[C@@H](NC(=O)c2cc(Cl)cc(Cl)c2O)CC1)c1cc(F)cnc1OC1CCSCC1 [Example 26, Syn-N-[4-(3,5-Dichloro-2-hydroxy-benzoylamino)-cyclohexyl]-5-fluoro-2-(tetrahydro-thiopyran-4-yloxy)-nicotinamide]",IC50,14 nM
